Results taken from PubChem BioAssay (NCI).
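Five compound concentrations were applied to cells in 96-well plates for 48 hours; endpoints were derived by simple linear interpolation of the resulting dose-response curve. Abbreviation: GI50, concentration required for 50% inhibition of growth. The concentration for full growth arrest is given as TGI.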

Legend:
Assay in all cases: inhibition of tumour cell growth, NCI panel, 48 h; in the data active = GI50 below about 0.43 µM; inactive = the rest
UACC-62 melanoma = system: UACC-62 melanoma
RXF 393 renal = system: RXF 393 renal
HOP-62 NSCLC = system: HOP-62 NSCLC
SK-MEL-2 melanoma = system: SK-MEL-2 melanoma
U251 CNS = system: U251 CNS
HCT-15 colon = system: HCT-15 colon
HS 578T breast = system: HS 578T breast
SF-539 CNS = system: SF-539 CNS
SNB-75 CNS = system: SNB-75 CNS
K-562 leukemia = system: K-562 leukemia

Cc1ccc(-c2cc(/C=N/O)on2)cc1
inactive: GI50 (UACC-62 melanoma) 38.9 µM | GI50 (RXF 393 renal) > 100 µM | GI50 (HOP-62 NSCLC) > 100 µM | GI50 (SK-MEL-2 melanoma) 97.3 µM | GI50 (U251 CNS) 54.3 µM | GI50 (HCT-15 colon) 64.6 µM | GI50 (HS 578T breast) > 100 µM | GI50 (SF-539 CNS) > 100 µM
> 100 µM: TGI (UACC-62 melanoma) | TGI (RXF 393 renal) | TGI (HOP-62 NSCLC) | TGI (SK-MEL-2 melanoma) | TGI (U251 CNS) | TGI (HCT-15 colon) | TGI (HS 578T breast) | TGI (SF-539 CNS)

CCOC(=O)C(Cc1ccc(OC)cc1)C(=O)OCC
inactive: GI50 (UACC-62 melanoma) 4.66 µM | GI50 (SNB-75 CNS) 2.72 µM | GI50 (RXF 393 renal) 2.61 µM | GI50 (HOP-62 NSCLC) 9.51 µM | GI50 (SK-MEL-2 melanoma) 2.64 µM | GI50 (U251 CNS) 4.79 µM | GI50 (HCT-15 colon) 3.77 µM | GI50 (K-562 leukemia) 1.83 µM | GI50 (SF-539 CNS) 2.92 µM
19.4 µM: TGI (HCT-15 colon)
7.02 µM: TGI (RXF 393 renal)
11.8 µM: TGI (K-562 leukemia)
17.9 µM: TGI (U251 CNS)
9.43 µM: TGI (SF-539 CNS)
8.66 µM: TGI (SK-MEL-2 melanoma)
17.3 µM: TGI (UACC-62 melanoma)
22.6 µM: TGI (HOP-62 NSCLC)
9.35 µM: TGI (SNB-75 CNS)

CCOc1ccc(NC(=O)CCC(=O)NN)cc1
> 100 µM: TGI (SNB-75 CNS) | TGI (RXF 393 renal) | TGI (HOP-62 NSCLC) | TGI (SK-MEL-2 melanoma) | TGI (U251 CNS) | TGI (HCT-15 colon) | TGI (K-562 leukemia)

CON
inactive: GI50 (UACC-62 melanoma) > 100 µM | GI50 (SNB-75 CNS) > 100 µM | GI50 (RXF 393 renal) > 100 µM | GI50 (HOP-62 NSCLC) > 100 µM | GI50 (SK-MEL-2 melanoma) > 100 µM | GI50 (U251 CNS) > 100 µM | GI50 (HCT-15 colon) > 100 µM | GI50 (HS 578T breast) > 100 µM | GI50 (SF-539 CNS) > 100 µM
> 100 µM: TGI (UACC-62 melanoma) | TGI (SNB-75 CNS) | TGI (RXF 393 renal) | TGI (HOP-62 NSCLC) | TGI (SK-MEL-2 melanoma) | TGI (U251 CNS) | TGI (HCT-15 colon) | TGI (HS 578T breast) | TGI (SF-539 CNS)

OC1C2C=CCC1CCC2 (centres undefined)
> 100 µM: TGI (UACC-62 melanoma) | TGI (SNB-75 CNS) | TGI (RXF 393 renal) | TGI (HOP-62 NSCLC) | TGI (SK-MEL-2 melanoma) | TGI (U251 CNS) | TGI (K-562 leukemia) | TGI (SF-539 CNS)

CC(=O)/C=C/C1=C(c2ccsc2)c2ccccc2CC1
66.8 µM: TGI (HOP-62 NSCLC)
35.3 µM: TGI (HCT-15 colon)
37.1 µM: TGI (UACC-62 melanoma)
> 100 µM: TGI (SNB-75 CNS) | TGI (HS 578T breast)
44 µM: TGI (K-562 leukemia)
inactive: GI50 (UACC-62 melanoma) 16.2 µM | GI50 (SNB-75 CNS) > 100 µM | GI50 (HOP-62 NSCLC) 26.1 µM | GI50 (SK-MEL-2 melanoma) 21.2 µM | GI50 (U251 CNS) 22.1 µM | GI50 (HCT-15 colon) 18.6 µM | GI50 (HS 578T breast) 48.4 µM | GI50 (K-562 leukemia) 21.3 µM | GI50 (SF-539 CNS) 25.1 µM
48.8 µM: TGI (U251 CNS)
60.7 µM: TGI (SF-539 CNS)
38 µM: TGI (SK-MEL-2 melanoma)

NC(=O)CCC(NC(=O)C(F)(F)F)C(=O)O (centres undefined)
> 100 µM: TGI (UACC-62 melanoma) | TGI (SNB-75 CNS) | TGI (RXF 393 renal) | TGI (HOP-62 NSCLC) | TGI (SK-MEL-2 melanoma) | TGI (U251 CNS) | TGI (HCT-15 colon) | TGI (K-562 leukemia) | TGI (SF-539 CNS)

O=P1(O)c2ccccc2CS(=O)(=O)Cc2ccccc21
> 100 µM: TGI (UACC-62 melanoma) | TGI (RXF 393 renal) | TGI (HOP-62 NSCLC) | TGI (SK-MEL-2 melanoma) | TGI (U251 CNS) | TGI (HCT-15 colon) | TGI (HS 578T breast) | TGI (K-562 leukemia) | TGI (SF-539 CNS)

CCOC(=O)CNC(=O)C(CSC(=O)N(C)O)NC(=O)CCC(N)C(=O)O (centres undefined)
inactive: GI50 (UACC-62 melanoma) > 2000 µM | GI50 (SNB-75 CNS) > 2000 µM | GI50 (RXF 393 renal) > 2000 µM | GI50 (HOP-62 NSCLC) > 2000 µM | GI50 (SK-MEL-2 melanoma) > 2000 µM | GI50 (U251 CNS) > 2000 µM | GI50 (HCT-15 colon) > 2000 µM | GI50 (K-562 leukemia) > 2000 µM
> 2000 µM: TGI (UACC-62 melanoma) | TGI (SNB-75 CNS) | TGI (RXF 393 renal) | TGI (HOP-62 NSCLC) | TGI (SK-MEL-2 melanoma) | TGI (U251 CNS) | TGI (HCT-15 colon) | TGI (K-562 leukemia)
